Source: patent US11718604B2, “4-amino-6-(1,3-benzodioxole)picolinates and their use as herbicides” (Dow AgroSciences LLC, priority 2018, dated 2023)

Assays:
Type in all cases: in vivo
[1] = test system: SETFA: giant foxtail (Setaria faberi); assay: Post-emergent herbicidal test, giant foxtail; conditions: post-emergence, 336 h, 14 days after application, read-out: Visual Growth Reduction (%) 14 Days After Application SETFA; for pest or weed control at 17.5 g/ha: 17.5 g ai/ha; for pest or weed control at 35 g/ha: 35 g ai/ha; for pest or weed control at 70 g/ha: 70 g ai/ha; for pest or weed control at 140 g/ha: 140 g ai/ha
Procedure, shortened: (§1)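 Seedlings grown in greenhouse (23-29 °C day, 22-28 °C night, ~15 h photoperiod) to first or second true leaf stage were sprayed overhead at 187 L/ha with compound in acetone/DMSO/water/isopropanol/crop oil/Triton X-155, at the high rate and ½× to 1/16× dilutions. Injury scored visually after 14 d, 0 (none) to 100% (complete kill), relative to untreated plants.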

[2] = test system: ECHCG: barnyardgrass (Echinochloa crus-galli); assay: Post-emergent herbicidal test, barnyardgrass; conditions: post-emergence, 336 h, 14 days after application, read-out: Visual Growth Reduction (%) 14 Days After Application ECHCG; for pest or weed control at 17.5 g/ha: 17.5 g ai/ha; for pest or weed control at 35 g/ha: 35 g ai/ha; for pest or weed control at 70 g/ha: 70 g ai/ha; for pest or weed control at 140 g/ha: 140 g ai/ha
Procedure, shortened: as §1

[3] = test system: VIOTR: wild violet (Viola tricolor); assay: Post-emergent herbicidal test, wild violet; conditions: post-emergence, 336 h, 14 days after application, read-out: Visual Growth Reduction (%) 14 Days After Application VIOTR; for pest or weed control at 17.5 g/ha: 17.5 g ai/ha; for pest or weed control at 35 g/ha: 35 g ai/ha; for pest or weed control at 70 g/ha: 70 g ai/ha; for pest or weed control at 140 g/ha: 140 g ai/ha
Procedure, shortened: as §1

[4] = test system: IPOHE: ivyleaf morningglory (Ipomoea hederacea); assay: Post-emergent herbicidal test, ivyleaf morningglory; conditions: post-emergence, 336 h, 14 days after application, read-out: Visual Growth Reduction (%) 14 Days After Application IPOHE; for pest or weed control at 17.5 g/ha: 17.5 g ai/ha; for pest or weed control at 35 g/ha: 35 g ai/ha; for pest or weed control at 70 g/ha: 70 g ai/ha; for pest or weed control at 140 g/ha: 140 g ai/ha
Procedure, shortened: as §1

[5] = test system: BRSNN: oilseed rape, canola (Brassica napus); assay: Post-emergent herbicidal test, oilseed rape; conditions: post-emergence, 336 h, 14 days after application, read-out: Visual Growth Reduction (%) 14 Days After Application BRSNN; for pest or weed control at 17.5 g/ha: 17.5 g ai/ha; for pest or weed control at 35 g/ha: 35 g ai/ha; for pest or weed control at 70 g/ha: 70 g ai/ha; for pest or weed control at 140 g/ha: 140 g ai/ha
Procedure, shortened: as §1

[6] = test system: DIGSA: large crabgrass (Digitaria sanguinalis); assay: Post-emergent herbicidal test, large crabgrass; conditions: post-emergence, 336 h, 14 days after application, read-out: Visual Growth Reduction (%) 14 Days After Application DIGSA; for pest or weed control at 17.5 g/ha: 17.5 g ai/ha; for pest or weed control at 35 g/ha: 35 g ai/ha; for pest or weed control at 70 g/ha: 70 g ai/ha; for pest or weed control at 140 g/ha: 140 g ai/ha
Procedure, shortened: as §1

[7] = test system: SORVU: shattercane (Sorghum bicolor); assay: Post-emergent herbicidal test, shattercane; conditions: post-emergence, 336 h, 14 days after application, read-out: Visual Growth Reduction (%) 14 Days After Application SORVU; for pest or weed control at 17.5 g/ha: 17.5 g ai/ha; for pest or weed control at 35 g/ha: 35 g ai/ha; for pest or weed control at 70 g/ha: 70 g ai/ha; for pest or weed control at 140 g/ha: 140 g ai/ha
Procedure, shortened: as §1

[8] = test system: CIRAR: Canada thistle (Cirsium arvense); assay: Post-emergent herbicidal test, Canada thistle; conditions: post-emergence, 336 h, 14 days after application, read-out: Visual Growth Reduction (%) 14 Days After Application CIRAR; for pest or weed control at 17.5 g/ha: 17.5 g ai/ha; for pest or weed control at 35 g/ha: 35 g ai/ha; for pest or weed control at 70 g/ha: 70 g ai/ha; for pest or weed control at 140 g/ha: 140 g ai/ha
Procedure, shortened: as §1

[9] = test system: EPHHL: wild poinsettia (Euphorbia heterophylla); assay: Post-emergent herbicidal test, wild poinsettia; conditions: post-emergence, 336 h, 14 days after application, read-out: Visual Growth Reduction (%) 14 Days After Application EPHHL; for pest or weed control at 17.5 g/ha: 17.5 g ai/ha; for pest or weed control at 35 g/ha: 35 g ai/ha; for pest or weed control at 70 g/ha: 70 g ai/ha; for pest or weed control at 140 g/ha: 140 g ai/ha
Procedure, shortened: as §1

[10] = test system: ABUTH: velvetleaf (Abutilon theophrasti); assay: Post-emergent herbicidal test, velvetleaf; conditions: post-emergence, 336 h, 14 days after application, read-out: Visual Growth Reduction (%) 14 Days After Application ABUTH; for pest or weed control at 17.5 g/ha: 17.5 g ai/ha; for pest or weed control at 35 g/ha: 35 g ai/ha; for pest or weed control at 70 g/ha: 70 g ai/ha; for pest or weed control at 140 g/ha: 140 g ai/ha
Procedure, shortened: as §1

[11] = test system: CYPES: yellow nutsedge (Cyperus esculentus); assay: Post-emergent herbicidal test, yellow nutsedge; conditions: post-emergence, 336 h, 14 days after application, read-out: Visual Growth Reduction (%) 14 Days After Application CYPES; for pest or weed control at 17.5 g/ha: 17.5 g ai/ha; for pest or weed control at 35 g/ha: 35 g ai/ha; for pest or weed control at 70 g/ha: 70 g ai/ha; for pest or weed control at 140 g/ha: 140 g ai/ha
Procedure, shortened: as §1

Nc1c(F)c(-c2cccc3c2OC(F)(F)O3)nc(C(=O)O)c1Cl [Compound 5]
pest or weed control at 17.5 g/ha [1]: 0% | pest or weed control at 35 g/ha [1]: 0% | pest or weed control at 70 g/ha [1]: 0% | pest or weed control at 140 g/ha [1]: 0% | pest or weed control at 17.5 g/ha [2]: 0% | pest or weed control at 35 g/ha [2]: 0% | pest or weed control at 70 g/ha [2]: 0% | pest or weed control at 140 g/ha [2]: 0% | pest or weed control at 17.5 g/ha [3]: 0% | pest or weed control at 35 g/ha [3]: 0% | pest or weed control at 70 g/ha [3]: 10% | pest or weed control at 140 g/ha [3]: 10% | pest or weed control at 17.5 g/ha [4]: 0% | pest or weed control at 35 g/ha [4]: 0% | pest or weed control at 70 g/ha [4]: 0% | pest or weed control at 140 g/ha [4]: 10% | pest or weed control at 17.5 g/ha [5]: 75% | pest or weed control at 35 g/ha [5]: 80% | pest or weed control at 70 g/ha [5]: 85% | pest or weed control at 140 g/ha [5]: 95% | pest or weed control at 17.5 g/ha [6]: 0% | pest or weed control at 35 g/ha [6]: 0% | pest or weed control at 70 g/ha [6]: 0% | pest or weed control at 140 g/ha [6]: 0% | pest or weed control at 17.5 g/ha [7]: 0% | pest or weed control at 35 g/ha [7]: 0% | pest or weed control at 70 g/ha [7]: 0% | pest or weed control at 140 g/ha [7]: 0% | pest or weed control at 17.5 g/ha [8]: 60% | pest or weed control at 35 g/ha [8]: 70% | pest or weed control at 70 g/ha [8]: 75% | pest or weed control at 140 g/ha [8]: 80% | pest or weed control at 17.5 g/ha [9]: 0% | pest or weed control at 35 g/ha [9]: 0% | pest or weed control at 70 g/ha [9]: 0% | pest or weed control at 140 g/ha [9]: 0% | pest or weed control at 17.5 g/ha [10]: 10% | pest or weed control at 35 g/ha [10]: 20% | pest or weed control at 70 g/ha [10]: 40% | pest or weed control at 140 g/ha [10]: 50% | pest or weed control at 17.5 g/ha [11]: 0% | pest or weed control at 35 g/ha [11]: 0% | pest or weed control at 70 g/ha [11]: 0% | pest or weed control at 140 g/ha [11]: 0%

C#CCOC(=O)c1nc(-c2ccc(Cl)c3c2OCO3)c(F)c(N)c1Cl [Compound 1C]
pest or weed control at 17.5 g/ha [1]: 0% | pest or weed control at 35 g/ha [1]: 0% | pest or weed control at 70 g/ha [1]: 50% | pest or weed control at 140 g/ha [1]: 60% | pest or weed control at 17.5 g/ha [2]: 0% | pest or weed control at 35 g/ha [2]: 0% | pest or weed control at 70 g/ha [2]: 0% | pest or weed control at 140 g/ha [2]: 0% | pest or weed control at 17.5 g/ha [3]: 65% | pest or weed control at 35 g/ha [3]: 65% | pest or weed control at 70 g/ha [3]: 60% | pest or weed control at 140 g/ha [3]: 65% | pest or weed control at 17.5 g/ha [4]: 0% | pest or weed control at 35 g/ha [4]: 0% | pest or weed control at 70 g/ha [4]: 0% | pest or weed control at 140 g/ha [4]: 10% | pest or weed control at 17.5 g/ha [5]: 95% | pest or weed control at 35 g/ha [5]: 97% | pest or weed control at 70 g/ha [5]: 100% | pest or weed control at 140 g/ha [5]: 100% | pest or weed control at 17.5 g/ha [6]: 0% | pest or weed control at 35 g/ha [6]: 0% | pest or weed control at 70 g/ha [6]: 0% | pest or weed control at 140 g/ha [6]: 60% | pest or weed control at 17.5 g/ha [7]: 10% | pest or weed control at 35 g/ha [7]: 50% | pest or weed control at 70 g/ha [7]: 70% | pest or weed control at 140 g/ha [7]: 70% | pest or weed control at 17.5 g/ha [8]: 70% | pest or weed control at 35 g/ha [8]: 85% | pest or weed control at 70 g/ha [8]: 90% | pest or weed control at 140 g/ha [8]: 90% | pest or weed control at 17.5 g/ha [9]: 10% | pest or weed control at 35 g/ha [9]: 10% | pest or weed control at 70 g/ha [9]: 10% | pest or weed control at 140 g/ha [9]: 25% | pest or weed control at 17.5 g/ha [10]: 100% | pest or weed control at 35 g/ha [10]: 100% | pest or weed control at 70 g/ha [10]: 100% | pest or weed control at 140 g/ha [10]: 100% | pest or weed control at 17.5 g/ha [11]: 30% | pest or weed control at 35 g/ha [11]: 80% | pest or weed control at 70 g/ha [11]: 85% | pest or weed control at 140 g/ha [11]: 80%
